Reference: patent US5342845A, “Indole derivatives and drugs” (priority 1990, dated 1994)
Structures can show the parent of a compound that is named as a salt.

Experiments:
mice = test: Acute toxicity; type: in vivo, male mice; conditions: 48 hours
Excerpt: Six-week-old male mice were used.

[1] = test system: cisplatin-induced vomiting; test: Inhibition of cisplatin-induced vomiting; type: in vivo, beagle dogs; conditions: for a/b (Number of animals which vomited/number of animals used): 5 min before cisplatin 2 mg/kg i.v., 6 h observation; for Vomiting frequency: control 12.2 ± 0.8; for Latency to vomiting: control 118.9 ± 5.6
Description: 2. Inhibition of cisplatin-induced vomiting
The experiment was performed with reference to the method of Cohen et al. (Cohen, M. L., Bloomquist, W., Gidda, J. S. and Lacefie, W: Comparison of the 5-HT3 receptor antagonist properties of ICS-205-930, GR38032F and Zacopride; J. Pharmacol. Exp. Ther. 248, 197-201 (1989)). In this experiment, beagle dogs of either sex, weighing 8-15 kg, were used. […] The test compounds were administered intravenously 5 minutes before the administration of cisplatin.

[2] = test system: Bezold-Jarisch reflex (serotonin-induced decrease in heart rate); test: Inhibition of serotonin-induced Bezold-Jarisch reflex; type: in vivo, male rats; conditions: Rattus norvegicus, iv, 5 min; i.v. 5 min before 0.1 mg/kg i.v. serotonin; dose inhibiting response by 50%
Excerpt: 1. Inhibition of Bezold-Jarisch reflex
The effect of the test compound on the serotonin-induced decrease in heart rate (Bezold-Jarisch reflex) was investigated in male rats, 6-8 weeks of age, with reference to the method of Richardson, et al. (Richardson, B. P., Engel, G., Donatsch, P. and Stadle, P. A.: Identification of serotonin-receptor subtypes and their specific blockade by a new class of drugs; Nature 316, 126-131 (1985)). With the animal immobilized in dorsal position under urethane anesthesia, 0.1 mg/kg of serotonin was administered intravenously before and 5 min after intravenous administration of the test compound and changes in heart rate were recorded. […] The ED50 value was calculated by the least square method.

[3] = test system: scopolamine-induced deficits of learning and memory; test: Ameliorative effect on scopolamine-induced deficits of learning and memory (step through-type passive avoidance); type: in vivo, rats
Description: 3. Ameliorative effect on scopolamine-induced deficits of learning and memory
The experiment was performed in groups of 10 rats. In the intraperitoneal administration study, the test compound was dissolved in physiological saline and administered, and 15 minutes later 0.3 mg/kg of scopolamine was administered intraperitoneally. In the oral administration study, the test compound was suspended in 0.5% methylcellulose (MC) solution and administered and 30 minutes later 0.3 mg/kg of scopolamine was administered intraperitoneally. Thirty minutes after scopolamine administration, training sessions for a step through-type passive avoidance learning task was carried out and 24 hours after this training, trial sessions were started.
The latency to step-through in the trial sessions was determined up to a maximum of 300 seconds and the result was regarded as a learning result. For the test of significant differences from the control group, the Kruscall-Wallis test and the Fisher test were used. The control group received a physiological saline or MC solution.

muscarine M1 receptors = molecular target: T1, muscarine M1 receptors (Rattus norvegicus, UniProt P08482); test: Muscarine M1 receptor binding ([^3 H]pirenzepine displacement); conditions: 1 nM [^3 H]pirenzepine, rat brain membranes, pH 7.4, 25° C., 60 min
T1 construct: receptor membrane prepared from the rat brain; from tissue; host or cells: rat brain (receptor membrane)
T1 sequence (P08482 1-460): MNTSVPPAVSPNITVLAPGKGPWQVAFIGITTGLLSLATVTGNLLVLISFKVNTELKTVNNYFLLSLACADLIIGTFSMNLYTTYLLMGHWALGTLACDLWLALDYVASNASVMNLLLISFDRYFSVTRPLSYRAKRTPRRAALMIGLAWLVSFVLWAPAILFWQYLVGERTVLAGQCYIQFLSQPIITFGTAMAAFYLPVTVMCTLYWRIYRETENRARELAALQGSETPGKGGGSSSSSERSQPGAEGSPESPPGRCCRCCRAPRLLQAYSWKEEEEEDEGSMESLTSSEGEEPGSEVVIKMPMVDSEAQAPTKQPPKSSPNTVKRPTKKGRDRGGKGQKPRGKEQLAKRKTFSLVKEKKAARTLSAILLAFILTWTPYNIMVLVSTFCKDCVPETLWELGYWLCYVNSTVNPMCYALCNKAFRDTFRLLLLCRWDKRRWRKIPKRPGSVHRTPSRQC
Description: 4. Effect on muscarine M1 receptors
The muscarine M1 receptor binding assay was carried out according to the method of Watson and Yamamura [Life Sci. 32; 3001-3011 (1983)]. Thus, receptor membrane prepared from the rat brain were incubated with 1 nM [^3 H]pirenzepine in 10 mM Na/K phosphate buffer (pH 7.4) at 25° C. for 60 minutes. As a displacer, 1μM atropine was used.

[4] = test system: emesis associated with the administration of anticancer drugs; conditions: background art; cited from earlier work
[5] = oral, 0.03 μg/kg, control 110.1 ± 41.6 (Example 11), 111.9 ± 41.4 (Example 12)
[6] = oral, 0.1 μg/kg, control 110.1 ± 41.6 (Example 11), 111.9 ± 41.4 (Example 12)
[7] = oral, 0.3 μg/kg, control 110.1 ± 41.6 (Example 11), 111.9 ± 41.4 (Example 12)
[8] = oral, 1 μg/kg, control 110.1 ± 41.6 (Example 11), 111.9 ± 41.4 (Example 12)

## COc1ccc(-c2c(C(=O)NC3CN4CCC3CC4)c3ccccc3n2C)cc1 (stereo not shown) [Example 4, N-(1-Azabicyclo[2,2,21octo-3-yl)-2-(4-methoxyphenyl)-1-methylindole-3-carboxamide hydrochloride]
mice; 30 mg/kg intraperitoneal
  Number of dead animals/number of animals used: 0/4
mice; 50 mg/kg intraperitoneal
  Number of dead animals/number of animals used: 0/4

## CN1C2CCC1CC(OC(=O)c1c[nH]c3ccccc13)C2 (stereo not shown) [ICS-205-930, reference compound]
[1]; 0.03 mg/kg i.v.
  a/b (Number of animals which vomited/number of animals used): 4/4
  Vomiting frequency: 9.5 ± 1.3 times
  Latency to vomiting: 139.8 ± 13.2 min
[2]
  ED50: 1.79 µg/kg

## Cn1c(-c2ccc(Cl)cc2)c(C(=O)NC2CN3CCC2CC3)c2ccccc21 (stereo not shown) [Example 6, N-(1-Azabicyclo[2,2,2]octo-3-yl)-2-(4-chlorophenyl)-1-methylindole-3-carboxamide hydrochloride]
mice; 50 mg/kg intraperitoneal
  Number of dead animals/number of animals used: 0/4

## Cn1c(-c2ccccc2)c(C(=O)N[C@@H]2CN3CCC2CC3)c2ccccc21 [Example 3, (S)-(-)-N(1-Azabicyclo[2,2,2]octo-3-yl)-2-phenyl-1-methylindole-3-carboxamide hydrochloride]
[1]; 0.03 mg/kg i.v.
  a/b (Number of animals which vomited/number of animals used): 2/2
  Vomiting frequency: 1.0 times
  Latency to vomiting: 215.0 min
mice; 30 mg/kg intraperitoneal
  Number of dead animals/number of animals used: 0/4
mice; 50 mg/kg intraperitoneal
  Number of dead animals/number of animals used: 0/4

## COc1ccc(-c2c(C(=O)N[C@@H]3CN4CCC3CC4)c3ccccc3n2C)cc1 [Example 2, (S)-(-)-N-(1-Azabicyclo[2,2,2]octo-3-yl)-2-(4-methoxyphenyl)-1-methylindole-3-carboxamide hydrochloride]
[1]; 0.03 mg/kg i.v.
  a/b (Number of animals which vomited/number of animals used): 2/2
  Vomiting frequency: 6.5 times
  Latency to vomiting: 192.0 min
mice; 30 mg/kg intraperitoneal
  Number of dead animals/number of animals used: 0/4
mice; 50 mg/kg intraperitoneal
  Number of dead animals/number of animals used: 0/4
[2]
  ED50: 0.3 µg/kg

## Cn1c(-c2ccccc2Cl)c(C(=O)N[C@@H]2CN3CCC2CC3)c2ccccc21 [Example 12, (S)-(31)-N-(1-Azabicyclo[2,2,2]octo-3-yl)-2-(2-chlorophenyl)-1-methylindole-3-carboxamide hydrochloride]
[3]; intraperitoneal, 0.1 μg/kg, control 103.8 ± 43.1
  Latency (to step-through): 170.5 ± 43.3 s
[3]; intraperitoneal, 0.3 μg/kg, control 103.8 ± 43.1
  Latency (to step-through): 183.0 ± 39.6 s
[3]; intraperitoneal, 1 μg/kg, control 103.8 ± 43.1
  Latency (to step-through): 270.7 ± 29.3 s
[3]; intraperitoneal, 3 μg/kg, control 103.8 ± 43.1
  Latency (to step-through): 256.3 ± 30.4 s
[3]; intraperitoneal, 10 μg/kg, control 103.8 ± 43.1
  Latency (to step-through): 163.8 ± 45.6 s
[3]; intraperitoneal, 30 μg/kg, control 103.8 ± 43.1
  Latency (to step-through): 127.8 ± 46.9 s
[3]; [5]
  Latency (to step-through): 108.5 ± 42.0 s
[3]; [6]
  Latency (to step-through): 246.3 ± 35.8 s
[3]; [7]
  Latency (to step-through): 247.3 ± 35.2 s
[3]; [8]
  Latency (to step-through): 105.5 ± 42.6 s
[3]; oral, 3 μg/kg, control 111.9 ± 41.4
  Latency (to step-through): 139.2 ± 44.0 s
[1]; 0.001 mg/kg i.v.
  a/b (Number of animals which vomited/number of animals used): 4/4
  Vomiting frequency: 7.0 ± 1.7 times
  Latency to vomiting: 140.5 ± 13.6 min
[1]; 0.01 mg/kg i.v.
  a/b (Number of animals which vomited/number of animals used): 4/4
  Vomiting frequency: 3.8 ± 0.5 times
  Latency to vomiting: 173.8 ± 25.3 min
[2]
  ED50: 0.2 µg/kg
Muscarine M1 receptors
  IC50: 1.2 µM

## COc1ccccc1-c1c(C(=O)NC2CN3CCC2CC3)c2ccccc2n1C (stereo not shown) [Example 8, N-(1-Azabicylo[2,2,2]octo-3-yl)-2-(2-methoxyphenyl)-1-methylindole-3-carboxamide hydrochloride]
[2]
  ED50: 0.18 µg/kg

## Cc1nccn1CC1CCc2c(c3ccccc3n2C)C1=O (stereo not shown) [GR-38032F, ondansetron]
[4]
  anxiolytic and antipsychotic actions (in words): exhibit excellent anxiolytic and antipsychotic actions
  effect on emesis associated with anticancer drugs (in words): markedly inhibit the emesis associated with the administration of anticancer drugs

## COc1ccccc1-c1c(C(=O)N[C@@H]2CN3CCC2CC3)c2ccccc2n1C [Example 11, (S)-(-)-N-(1-Azabicyclo[2,2,2]octo-3-yl)-2-(2-methoxyphenyl)-1-methylindole-3carboxamide hydrochloride]
[3]; [5]
  Latency (to step-through): 214.1 ± 43.8 s
[3]; [6]
  Latency (to step-through): 246.5 ± 35.7 s
[3]; [7]
  Latency (to step-through): 246.7 ± 35.6 s
[3]; [8]
  Latency (to step-through): 162.0 ± 46.1 s
[1]; 0.01 mg/kg i.v.
  a/b (Number of animals which vomited/number of animals used): 4/4
  Vomiting frequency: 6.8 ± 1.9 times
  Latency to vomiting: 149.5 ± 5.4 min
[2]
  ED50: 0.14 µg/kg
Muscarine M1 receptors
  IC50: 4.6 µM

## Cn1c(-c2ccc(Cl)cc2)c(C(=O)N[C@@H]2CN3CCC2CC3)c2ccccc21 [Example 7, (S)-(-)-N-(1-Azabicyclo[2,2,2]octo-3-yl)-2-(4-chlorophenyl)-1-methylindole-3-carboxamide hydrochloride]
[1]; 0.03 mg/kg i.v.
  a/b (Number of animals which vomited/number of animals used): 4/4
  Vomiting frequency: 2.3 ± 0.6 times
  Latency to vomiting: 206.8 ± 15.7 min
mice; 50 mg/kg intraperitoneal
  Number of dead animals/number of animals used: 0/4
[2]
  ED50: 0.28 µg/kg

## Cn1c(-c2ccccc2Cl)c(C(=O)NC2CN3CCC2CC3)c2ccccc21 (stereo not shown) [Example 10, N-(1-Azabicyclo[2,2,2]octo-3-yl)-2-(2-chlorophenyl)-1-methylindole-3-carboxamide hydrochloride]
[2]
  ED50: 0.25 µg/kg
